Consider 28 compounds from patent US11622937B2, “Polyphenolic polymer to make water-insoluble molecules become water-soluble” (priority 2015, dated 2023).

Molecules are shown by their SMILES. Counter-ions that a name gives are not always drawn.

Series [1] can be described thus: Comparative study of solubility profile in water (spectrophotometric absorption at 262). It counts as physicochemical. Conditions: 200 ml DI water, filtered 0.45 micron.
Procedure: A comparative study was conducted to observe the solubility profile in water. Materials: Ibuprofen was purchased from Spectrum (USP grade) USA. […] Spectrophotometer used in the study is from Beckman Coulter DU800. Sample preparation; 200 mg of Ibuprofen was weighed and ground in a […] -mortar and dissolved in 200 ml of DI water.
The conditions of series [2]: cited from earlier work.
Series [3] in a line: Solubility with Polyphenolic Polymer in water. The conditions noted are these: molecule formulated with Polyphenolic Polymer.
For series [4] the following is noted: estimated; cited from earlier work.

For `CC(C)Cc1ccc(C(C)C(=O)O)cc1` (centres unmarked) [Ibuprofen], in series [1], the solubility entry was “less than 1%”. Moreover, the “Reported Solubility in water” value in series [2] is on record as “Insoluble”.

Turning to `CC(=O)Oc1ccccc1C(=O)O` [Aspirin], the “Reported Solubility in water” value in series [2] was “Insoluble”. For the same compound, the “Solubility with Polyphenolic Polymer in water (more than 99%)” value (“Solubility … (more than 99%)” for short) in series [3] is on record as “Water Soluble”.

For `CCCCCOC(=O)Nc1nc(=O)n([C@@H]2O[C@H](C)[C@@H](O)[C@H]2O)cc1F` [Capecitabine], in series [2], the “Reported Solubility in water” value is reported as “Insoluble”. In addition, the “Solubility … (more than 99%)” value in series [3] is recorded as “Water Soluble”.

In the case of `CN1CCCC(n2nc(Cc3ccc(Cl)cc3)c3ccccc3c2=O)CC1` (centres unmarked) [Azelastine], in series [2], the “Reported Solubility in water” value was “Insoluble”. Further, the “Solubility … (more than 99%)” value in series [3] was “Water Soluble”.

With `CO[C@H]1C[C@@H]2CC[C@@H](C)[C@@](O)(O2)C(=O)C(=O)N2CCCC[C@H]2C(=O)O[C@H]([C@H](C)C[C@@H]2CC[C@@H](O)[C@H](OC)C2)CC(=O)[C@H](C)/C=C(\C)[C@@H](O)[C@@H](OC)C(=O)[C@H](C)C[C@H](C)/C=C/C=C/C=C/1C` [Rapamycin], the “Reported Solubility in water” value in series [2] is reported as “Insoluble”. The “Solubility … (more than 99%)” value in series [3] is reported as “Water Soluble”.

For the compound `C[C@@H]1C[C@H]2[C@@H]3CCC4=CC(=O)C=C[C@]4(C)[C@@]3(F)[C@@H](O)C[C@]2(C)[C@@]1(O)C(=O)CO` [Dexamethasone], the “Reported Solubility in water” value in series [2] is “Insoluble”. Also, in series [3], the “Solubility … (more than 99%)” value was “Water Soluble”.

As for `CCCC1O[C@@H]2C[C@H]3[C@@H]4CCC5=CC(=O)C=C[C@]5(C)[C@H]4[C@@H](O)C[C@]3(C)[C@]2(C(=O)CO)O1` (some centres unmarked) [Budesonide, 98%, Budesonide], the “Reported Solubility in water” value in series [2] is “Insoluble”. In series [3], the “Solubility … (more than 99%)” value is given as “Water Soluble”.

In the case of `CC[C@@]1(O)C(=O)OCc2c1cc1n(c2=O)Cc2cc3ccccc3nc2-1` [Camptothecin], in series [2], the “Reported Solubility in water” value is “Insoluble”. Besides, in series [3], the “Solubility … (more than 99%)” value is recorded as “Water Soluble”.

With `CN1C[C@H](C(=O)N[C@]2(C)O[C@@]3(O)[C@@H]4CCCN4C(=O)[C@H](Cc4ccccc4)N3C2=O)C[C@@H]2c3cccc4[nH]cc(c34)C[C@H]21` [Dihydroergotamine Mesylate], the “Reported Solubility in water” value in series [2] was “Insoluble”. Besides, in series [3], the “Solubility … (more than 99%)” value is given as “Water Soluble”.

On to `Nc1cccc2c1CN(C1CCC(=O)NC1=O)C2=O` (centres unmarked) [Lenalidomide], for which the “Reported Solubility in water” value in series [2] is recorded as “Insoluble”. For the same compound, the “Solubility … (more than 99%)” value in series [3] is “Water Soluble”.

Take `CO[C@H]1/C=C/O[C@@]2(C)Oc3c(C)c(O)c4c(O)c(c(/C=N/N5CCN(C)CC5)c(O)c4c3C2=O)NC(=O)/C(C)=C\C=C\[C@H](C)[C@H](O)[C@@H](C)[C@@H](O)[C@@H](C)[C@H](OC(C)=O)[C@@H]1C` [Rifampin]: the “Reported Solubility in water” value in series [2] was “Insoluble”. The “Solubility … (more than 99%)” value in series [3] was “Water Soluble”.

`COc1cccc2c1C(=O)c1c(O)c3c(c(O)c1C2=O)C[C@@](O)(C(=O)CO)C[C@@H]3O[C@H]1C[C@H](N)[C@H](O)[C@H](C)O1` [Doxorubicin]: the “Reported Solubility in water” value in series [2] is listed as “Insoluble”. In addition, the “Solubility … (more than 99%)” value in series [3] is recorded as “Water Soluble”.

In the case of `COC1=C(OC)C(=O)C(C/C=C(\C)CC/C=C(\C)CC/C=C(\C)CC/C=C(\C)CC/C=C(\C)CC/C=C(\C)CC/C=C(\C)CC/C=C(\C)CC/C=C(\C)CCC=C(C)C)=C(C)C1=O` [CoQ10], the “Reported Solubility in water” value in series [2] is given as “Insoluble”. In addition, the “Solubility … (more than 99%)” value in series [3] was “Water Soluble”.

Regarding `C#Cc1cccc(Nc2ncnc3cc(OCCOC)c(OCCOC)cc23)c1` [Erlotinib Monohydrochloride], in series [2], the “Reported Solubility in water” value is given as “Insoluble”. Besides, the “Solubility … (more than 99%)” value in series [3] is “Water Soluble”.

Regarding `Cc1nc2n(c(=O)c1CCN1CCC(c3noc4cc(F)ccc34)CC1)CCCC2O` (centres unmarked) [Paliperidone], the “Reported Solubility in water” value in series [2] is given as “Insoluble”. Also, the “Solubility … (more than 99%)” value in series [3] is given as “Water Soluble”.

Take `CC(=O)O[C@@]12CO[C@@H]1C[C@H](O)[C@@]1(C)C(=O)[C@H](O)C3=C(C)[C@@H](OC(=O)[C@H](O)[C@@H](NC(=O)OC(C)(C)C)c4ccccc4)C[C@@](O)([C@@H](OC(=O)c4ccccc4)[C@H]21)C3(C)C` [Docetaxel]: the “Reported Solubility in water” value in series [2] is recorded as “Insoluble”. Further, in series [3], the “Solubility … (more than 99%)” value is “Water Soluble”.

As to `CN1C(C(=O)Nc2ccccn2)=C(O)c2ccccc2S1(=O)=O` [Piroxicam (pain), Piroxicam], the “Reported Solubility in water” value in series [2] was “Insoluble”. The “Solubility … (more than 99%)” value in series [3] is reported as “Water Soluble”.

Turning to `CCC(C)n1ncn(-c2ccc(N3CCN(c4ccc(OCC5COC(Cn6cncn6)(c6ccc(Cl)cc6Cl)O5)cc4)CC3)cc2)c1=O` (centres unmarked) [Itraconazole], in series [2], the “Reported Solubility in water” value is on record as “Insoluble”. Moreover, the “Solubility … (more than 99%)” value in series [3] is on record as “Water Soluble”.

For the compound `O=c1c(O)c(-c2ccc(O)cc2)oc2cc(O)cc(O)c12` [Kaempferol], the “Reported Solubility in water” value in series [2] is on record as “Insoluble”. Besides, the “Solubility … (more than 99%)” value in series [3] is recorded as “Water Soluble”.

On to `CC[C@H]1OC(=O)[C@H](C)[C@@H](O[C@H]2C[C@@](C)(OC)[C@@H](O)[C@H](C)O2)[C@H](C)[C@@H](O[C@@H]2O[C@H](C)C[C@H](N(C)C)[C@H]2O)[C@](C)(OC)C[C@@H](C)C(=O)[C@H](C)[C@@H](O)[C@]1(C)O` [Clarithromycin], for which the “Reported Solubility in water” value in series [2] is “Insoluble”. Besides, the “Solubility … (more than 99%)” value in series [3] is recorded as “Water Soluble”.

For the compound `C=C(c1ccc(C(=O)O)cc1)c1cc2c(cc1C)C(C)(C)CCC2(C)C` [Bexarotene, Free Acid (4), Bexarotene], the solubility in water in series [4] was 10 to 50 µM. For the same compound, in series [2], the “Reported Solubility in water” value was “Insoluble”.

Consider `Cc1ccc(-c2cc(C(F)(F)F)nn2-c2ccc(S(N)(=O)=O)cc2)cc1` [Celecoxib], for which the “Reported Solubility in water” value in series [2] is “Insoluble”. Further, in series [3], the “Solubility … (more than 99%)” value is listed as “Water Soluble”.

For the compound `CN(Cc1cnc2nc(N)nc(N)c2n1)c1ccc(C(=O)N[C@@H](CCC(=O)O)C(=O)O)cc1` [Methotrexate], in series [2], the “Reported Solubility in water” value was “Insoluble”. The “Solubility … (more than 99%)” value in series [3] is “Water Soluble”.

Turning to `NC(=O)N1c2ccccc2C=Cc2ccccc21` [Carbamazepine], the “Reported Solubility in water” value in series [2] is “Insoluble”. The “Solubility … (more than 99%)” value in series [3] is “Water Soluble”.

Consider `Nc1cccc2c1C(=O)N(C1CCC(=O)NC1=O)C2=O` (centres unmarked) [Pomalidomide], for which the “Reported Solubility in water” value in series [2] is “Insoluble”. For the same compound, the “Solubility … (more than 99%)” value in series [3] is reported as “Water Soluble”.

As for `CCC(=O)O[C@]1(C(=O)SCF)[C@H](C)C[C@H]2[C@@H]3C[C@H](F)C4=CC(=O)C=C[C@]4(C)[C@@]3(F)[C@@H](O)C[C@@]21C` [Fluticasone Propionate], the “Reported Solubility in water” value in series [2] was “Insoluble”. For the same compound, the “Solubility … (more than 99%)” value in series [3] was “Water Soluble”.

For `CC[C@H]1OC(=O)[C@H](C)[C@@H](O[C@H]2C[C@@](C)(OC)[C@@H](O)[C@H](C)O2)[C@H](C)[C@@H](O[C@@H]2O[C@H](C)C[C@H](N(C)C)[C@H]2O)[C@](C)(O)C[C@@H](C)CN(C)[C@H](C)[C@@H](O)[C@]1(C)O` [Azithromycin-dihydrate], in series [2], the “Reported Solubility in water” value is “Insoluble”. Moreover, the “Solubility … (more than 99%)” value in series [3] was “Water Soluble”.

For `CC12CCC(CC1=O)C2(C)C` (centres unmarked) [Camphor], the “Reported Solubility in water” value in series [2] is “Insoluble”. Also, the “Solubility … (more than 99%)” value in series [3] is “Water Soluble”.
